Assay results reported in ChEMBL document CHEMBL2331176, “1,5-Diphenylpenta-2,4-dien-1-ones as potent and selective monoamine oxidase-B inhibitors” (Eur J Med Chem, 2013).

Key:
[1] = target: T1, Amine oxidase [flavin-containing] B (Homo sapiens, UniProt P27338); assay: Inhibition of recombinant human MAO-B expressed in baculovirus infected BT1-TN-5B1-4 cells assessed as inhibition of production of hydrogen peroxide from p-tyramine at 100 uM after 15 mins by Amplex Red assay; conditions: 0.25 h; for inhibition (INH): 100 µM
T1 sequence (P27338 whole entry): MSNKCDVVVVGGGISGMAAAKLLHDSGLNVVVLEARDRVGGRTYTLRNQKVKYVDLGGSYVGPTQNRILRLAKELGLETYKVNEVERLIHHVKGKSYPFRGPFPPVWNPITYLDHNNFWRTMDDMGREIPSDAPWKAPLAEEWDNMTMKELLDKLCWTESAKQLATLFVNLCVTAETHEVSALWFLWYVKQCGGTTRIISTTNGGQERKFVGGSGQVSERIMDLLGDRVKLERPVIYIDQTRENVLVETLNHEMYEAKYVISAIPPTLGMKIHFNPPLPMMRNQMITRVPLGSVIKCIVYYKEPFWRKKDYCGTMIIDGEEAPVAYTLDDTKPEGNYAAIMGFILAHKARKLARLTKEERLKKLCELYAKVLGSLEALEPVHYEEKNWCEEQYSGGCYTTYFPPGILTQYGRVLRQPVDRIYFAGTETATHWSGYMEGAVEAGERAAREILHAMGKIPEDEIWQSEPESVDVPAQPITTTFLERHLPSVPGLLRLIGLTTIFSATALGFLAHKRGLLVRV

[2] = target: T2, Amine oxidase [flavin-containing] A (Homo sapiens, UniProt P21397); assay: Inhibition of recombinant human MAO-A expressed in baculovirus infected BT1-TN-5B1-4 cells assessed as inhibition of production of hydrogen peroxide from p-tyramine at 100 uM after 15 mins by Amplex Red assay; conditions: 0.25 h; for inhibition (INH): 100 µM
T2 sequence (P21397 whole entry): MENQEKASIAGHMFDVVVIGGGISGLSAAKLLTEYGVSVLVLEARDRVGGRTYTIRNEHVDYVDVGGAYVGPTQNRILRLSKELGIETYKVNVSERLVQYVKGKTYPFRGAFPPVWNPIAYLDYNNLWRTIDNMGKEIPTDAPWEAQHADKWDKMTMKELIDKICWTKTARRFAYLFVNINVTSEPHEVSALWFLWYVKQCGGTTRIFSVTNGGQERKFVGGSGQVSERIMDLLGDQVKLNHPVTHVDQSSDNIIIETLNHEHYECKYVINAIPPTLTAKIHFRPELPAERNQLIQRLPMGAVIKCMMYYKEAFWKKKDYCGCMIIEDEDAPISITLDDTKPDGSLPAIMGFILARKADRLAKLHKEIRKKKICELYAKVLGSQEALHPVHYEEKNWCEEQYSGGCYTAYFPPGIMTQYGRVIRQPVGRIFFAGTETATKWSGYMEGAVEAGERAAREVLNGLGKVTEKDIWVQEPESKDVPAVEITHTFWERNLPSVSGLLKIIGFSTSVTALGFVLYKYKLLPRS

Homo sapiens = organism: Homo sapiens; assay: Selectivity index, ratio of IC50 for recombinant human MAO-A expressed in baculovirus infected BT1-TN-5B1-4 cells to recombinant human MAO-B expressed in baculovirus infected BT1-TN-5B1-4 cells
[3] = target: T1, Amine oxidase [flavin-containing] B; assay: biochemical; format: cell-based
Description: Inhibition of recombinant human MAO-B expressed in baculovirus infected BT1-TN-5B1-4 cells assessed as inhibition of production of hydrogen peroxide from p-tyramine after 15 mins by Amplex Red assay

[4] = target: T2, Amine oxidase [flavin-containing] A; assay: Inhibition of recombinant human MAO-A expressed in baculovirus infected BT1-TN-5B1-4 cells assessed as inhibition of production of hydrogen peroxide from p-tyramine after 15 mins by Amplex Red assay
[5] = target: T1, Amine oxidase [flavin-containing] B; assay: Inhibition of recombinant human MAO-B expressed in baculovirus infected BT1-TN-5B1-4 cells assessed as inhibition of production of hydrogen peroxide from p-tyramine at 1 mM after 15 mins by Amplex Red assay; conditions: 0.25 h, 1000 µM

Row | Structure (SMILES) | inhibition (INH) [2] | IC50 [3] | Ratio IC50 (Homo sapiens) | also measured
1 | O=C(/C=C/c1ccccc1)c1cc(F)ccc1O |  | 0.668 µM | > 150 | inhibition at 100 µM [2]: 40%
2 | COc1cc(/C=C/C=C/C(=O)c2c(O)cccc2O)ccc1O |  | 0.969 µM | 1.5 | IC50 [4]: 1.43 µM
3 | O=C(/C=C/C=C/c1ccc(Cl)cc1)c1ccc(O)cc1O |  | 0.0114 µM | 1350 | IC50 [4]: 15.4 µM
4 | O=C(/C=C/C=C/c1ccc([N+](=O)[O-])cc1)c1ccccc1O | Not Active | 0.16 µM | > 624 | 
5 | COc1ccc(/C=C/C=C/C(=O)c2c(O)cccc2OC)cc1OC |  |  |  | inhibition (INH) [1]: Not Active; inhibition at 100 µM [2]: 40%
6 | COc1cc(/C=C/C=C/C(=O)c2ccccc2O)ccc1O |  | 0.502 µM | 3.1 | IC50 [4]: 1.56 µM
7 | COc1cc(/C=C/C(O)=C/C(=O)c2c(O)cccc2OC)ccc1O |  | 1.68 µM | 2.2 | IC50 [4]: 3.76 µM
8 | COc1ccc(/C=C/C=C/C(=O)c2ccccc2O)cc1OC |  | 14.6 µM | > 6.8 | inhibition at 100 µM [2]: 40%
9 | O=C(/C=C/C=C/c1ccccc1)c1ccccc1O | Not Active | 0.106 µM | > 948 | 
10 | O=C(/C=C/C=C/c1ccc(Cl)cc1)c1cc(Cl)ccc1O | Not Active | 1.46 µM | > 68 | 
11 | O=C(/C=C/C=C/c1ccc([N+](=O)[O-])cc1)c1cc(Cl)ccc1O | Not Active | 1.08 µM | > 93 | 
12 | O=C(/C=C/C=C/c1ccccc1)c1cc(F)ccc1O | Not Active | 0.0758 µM | > 1320 | 
13 | COc1ccc(C(=O)/C=C/C=C/c2ccc(Cl)cc2)c(O)c1 | Not Active | 0.00451 µM | > 22200 | 
14 | COc1cc(/C=C/C=C/C(=O)c2c(O)cccc2OC)ccc1O |  | 0.486 µM | 2.1 | IC50 [4]: 1.03 µM
15 | COc1ccc(/C=C/C=C/C(=O)c2cc(Cl)ccc2O)cc1 | Not Active | 0.153 µM | > 653 | 
16 | O=C(/C=C/C=C/c1ccccc1)c1cc(Cl)ccc1O | Not Active | 0.0548 µM | > 1830 | 
17 | O=C(NCCN1CCOCC1)c1ccc(Cl)cc1 [MOCLOBEMIDE] |  |  |  | inhibition (INH) [5]: Not Active
18 | COc1ccc(/C=C/C=C/C(=O)c2c(O)cccc2O)cc1OC |  | 1.45 µM | 17 | IC50 [4]: 25.2 µM
19 | COc1ccc(/C=C/C(O)=C/C(=O)c2c(O)cccc2OC)cc1OC |  |  |  | inhibition (INH) [1]: Not Active; inhibition at 100 µM [2]: 40%

Second part, led by results:

Row | inhibition (INH) [2] | IC50 [3] | Structure (SMILES) | Ratio IC50 (Homo sapiens) | also measured
20 | Not Active |  | COc1ccc(/C=C/C(O)=C/C(=O)c2ccccc2O)cc1 |  | inhibition at 100 µM [1]: 40%
21 | Not Active | 3.77 µM | Cc1ccc(/C=C/C(O)=C/C(=O)c2ccccc2O)cc1 | > 27 | 
22 | Not Active | 0.0504 µM | O=C(/C=C(O)/C=C/c1ccccc1)c1cc(F)ccc1O | > 1980 | 
23 | Not Active | 1.16 µM | O=C(/C=C(O)/C=C/c1ccccc1)c1ccccc1O | > 86 | 
24 | Not Active | 2.67 µM | O=C(/C=C(O)/C=C/c1ccc([N+](=O)[O-])cc1)c1ccccc1O | > 37 | 
25 | Not Active |  | COc1ccc(/C=C/C(O)=C/C(=O)c2ccccc2O)cc1OC |  | inhibition (INH) [1]: Not Active
26 | Not Active |  | O=C(/C=C(O)/C=C/c1ccc(Cl)cc1)c1cc(Cl)ccc1O |  | inhibition (INH) [1]: Not Active
27 |  | 0.0265 µM | O=C(/C=C(O)/C=C/c1ccc(O)cc1)c1ccccc1O | 57 | IC50 [4]: 1.52 µM
28 |  | 0.654 µM | O=C(/C=C(O)/C=C/c1ccc(O)c(O)c1)c1ccccc1O | 0.66 | IC50 [4]: 0.431 µM
29 |  | 0.86 µM | O=C(/C=C/C=C/c1ccc(Cl)cc1)c1ccccc1O | 44 | IC50 [4]: 37.7 µM
30 |  | 1.81 µM | COc1ccc(/C=C/C=C/C(=O)c2ccccc2O)cc1 | > 55 | inhibition at 100 µM [2]: 40%
31 | Not Active |  | O=C(/C=C(O)/C=C/c1ccc(Cl)cc1)c1ccccc1O |  | inhibition at 100 µM [1]: 40%
32 | Not Active | 0.726 µM | COc1ccc(/C=C/C=C/C(=O)c2cc(F)ccc2O)cc1 | > 138 | 
